According to US20100254940A1, “Compositions and Methods for Regulating an Immune Response in a Subject” (INNATE PHARMA, S.A., priority 2002, published 2010):

Experiments:
IFNγ = test: Serum IFNγ by ELISA after BrHPP injection in cynomolgus monkeys; type: in vivo, cynomolgus monkeys (M. fascicularis)
Protocol: Serum cytokines (TNFα and INFg) were detected and quantified with the BIOSOURCE Cytoscreen™ ELISA monkey TNFa and Cytoscreen™ ELISA monkey INFg respectively (purchased from CliniSciences, Montrouge, France) according to the manufacturer's instructions.
Samples of sera were collected from group 2 animals during the first dose range assay (0 to 80 mg/kg) just before injection then 1 and 4 hours post injection, and assayed by ELISA specific for TNFa and IFNg.
Phosphostim was administered i.v., as slow infusions (50 ml in 30 minutes), at various dose levels to five groups of two animals (one male+one female). Males received two successive injections of BrHPP (Day 0 and Day 22) before sacrifice and females four injections (Days 0, 22, 52 and 84). Two females, selected upon their level of response to the 4th treatment, received a supplementary injection of BrHPP alone at Day 91, during γδ cell peripheral increase, for systemic cytokine dosages.

Vγ9Vδ2 T cells = test: Expansion of peripheral blood Vγ9Vδ2 T cells from PBMCs of mRCC patients with BrHPP and IL2; type: cell-based, human; conditions: 3 μM BrHPP + IL2, 15 days; 7 patients out of 12
Protocol: Blood samples from 12 RCC patients (50 ml) were collected just before or no more than 2 months after the nephrectomy. PBMCs were isolated by centrifugation on Ficoll-Hypaque density gradient (Amersham Biosciences). PBMCs from one healthy volunteer was used as control.
Ten million PBMCs were cultured at 2×10^6/ml in 24 well plate in RPMI 1640 supplemented with 10% v/v fetal calf serum (Fetal Clone irradiated, Hyclone).
Polyclonal Vγ9Vδ2 T cell lines were specifically expanded in presence of 3 μM BrHPP molecule (batch INPA-0214) and 100 IU/ml IL2 during 15 days.
Every three days, the volume corresponding to half culture medium was replaced by fresh medium containing only 200 IU/ml IL2
Before in vitro culture, phenotype of 2×10^5 PBMCs from RCC patients was analyzed using the following combinations of fluorescein isothiocyanate (FITC), phycoerythrin (PE) and phycoreythrin-cyanin 5 (PC5) conjugated antibodies to determine the NK, αβ and γδ T cells population (all purchased from Beckman-Coulter): CD3-PC5/Vδ2-FITC/IgG1-PE, CD8-PE, CD56-PE. At day 15 of the culture, a triple staining was performed on the expanded Vδ9Vδ2 T cells bulk. The following antibodies combinations were performed: […]

Substance: 3-(bromomethyl)-3-butanol-1-yl-diphosphate [BrHPP]
- IFNg in the sera (IFNγ; fifth injection 80 mg/kg without IL2 at peak after fourth injection): detectable at one hour post injection, and increased at 4 hours post injection
- Assessment of IFNγ (IFNγ; first dose range assay 0 to 80 mg/kg, 1 and 4 hours post injection): Did not Give Significant Results
- patients presenting a Vγ9Vδ2 T cells amplification (Vγ9Vδ2 T cells): 58%
